We go through twelve compounds from ChEMBL document CHEMBL1201862, “PubChem BioAssay data set” (2004).

Test systems include ACHN; A549; T47D; MDA-N; PC-3; HT-29; M14; Hs-578T; MDA-MB-435; IGROV-1; UO-31; Malme-3M; CCRF-CEM; SF-268; HOP-62; NCI-H460; MCF7; SK-MEL-28; A498.
What all share (assay): NCI anticancer screen, dose series, 48 h

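Cultured in 96-well plates, cells were exposed to test compound for 48 hours across five concentrations. GI50 = concentration required for 50% inhibition of growth.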 The source made the active and inactive calls. Cut-off read from the data, not from the text of the source: active = GI50 up to about 1.1 µM and inactive = higher.

Regarding `CCOP(=O)(OCC)C(C)(C)OC(=O)NC(F)(F)F`, the GI50 in the experiment with ACHN, with A549, in the experiment on T47D, with MDA-N, in the experiment with PC-3 and in the experiment on HT-29 was > 100 µM (inactive) throughout. Moreover, the GI50 in the experiment with M14, in the experiment with Hs-578T, in the experiment with MDA-MB-435, with IGROV-1, in the experiment with UO-31 and with Malme-3M was > 100 µM (inactive) in each case. The GI50 with CCRF-CEM, in the experiment on SF-268, in the experiment with HOP-62, in the experiment with NCI-H460, with MCF7 and with SK-MEL-28 was > 100 µM (inactive) each time.

In the case of `c1cc(CSP234N5CCN2CCN3CCN4CC5)cc(CSP234N5CCN2CCN3CCN4CC5)c1`, the GI50 in the experiment with ACHN was 33 µM (inactive); in the experiment on A549, 40.1 µM (inactive); with T47D, > 100 µM (inactive); in the experiment on MDA-N, 28.1 µM (inactive); with PC-3, 25.3 µM (inactive); in the experiment on HT-29 it was 19.1 µM (inactive). Besides, the GI50 in the experiment on M14 was 18.6 µM (inactive); with Hs-578T, 21.9 µM (inactive); with MDA-MB-435 it was 22.6 µM (inactive); with IGROV-1 it was 21.5 µM (inactive); in the experiment with UO-31, 13.9 µM (inactive); with CCRF-CEM, 16.5 µM (inactive). Also, the GI50 in the experiment on SF-268 was 29.4 µM (inactive); with HOP-62, 28.6 µM (inactive); in the experiment with NCI-H460 it was 26.6 µM (inactive); with MCF7, 25.8 µM (inactive); in the experiment on SK-MEL-28, 18.8 µM (inactive).

Turning to `CN1C(=O)C(O)C[C@@H]1c1ccccc1` (some centres not stated), the GI50 in the experiment with ACHN, with A549, in the experiment with T47D, in the experiment with MDA-N, in the experiment with PC-3 and in the experiment with HT-29 was > 100 µM (inactive) each time. In addition, the GI50 with M14, with Hs-578T, in the experiment with MDA-MB-435, in the experiment on IGROV-1, in the experiment on UO-31 and in the experiment with Malme-3M was > 100 µM (inactive) throughout. In addition, the GI50 in the experiment with CCRF-CEM, in the experiment on SF-268, in the experiment on HOP-62, in the experiment with MCF7 and in the experiment on SK-MEL-28 was > 100 µM (inactive) each time.

Turning to `O=C(O)c1nc2ccc(C(F)(F)F)cc2nc1Nc1ccc(Cl)c(Cl)c1`, the GI50 with ACHN was 7.67 µM (inactive); in the experiment with MDA-N, 6.73 µM (inactive); in the experiment with PC-3 it was 4.58 µM (inactive); in the experiment with HT-29 it was 9.16 µM (inactive); with Hs-578T, 18.4 µM (inactive); in the experiment on MDA-MB-435, 5.74 µM (inactive). Moreover, the GI50 with A498 is 13.6 µM (inactive); in the experiment on IGROV-1 it was 12.8 µM (inactive); in the experiment with UO-31, 4.48 µM (inactive); with Malme-3M, 13.3 µM (inactive); in the experiment with SF-268, 4.46 µM (inactive); with HOP-62 it was 7.85 µM (inactive). Further, the GI50 was 7.41 µM (inactive) in the experiment with NCI-H460, 14.3 µM (inactive) in the experiment with MCF7 and 13 µM (inactive) in the experiment on SK-MEL-28.

Regarding `COc1ccc(CCn2ccc(=O)c(O)c2C)cc1OC`, the GI50 in the experiment on ACHN was 5.26 µM (inactive); in the experiment with A549, 21.4 µM (inactive); in the experiment with T47D, 29.9 µM (inactive); in the experiment on MDA-N, 19.2 µM (inactive); in the experiment on PC-3 it was 56.2 µM (inactive); with HT-29, 18.5 µM (inactive). Further, the GI50 is 12.2 µM (inactive) in the experiment on M14; < 0.01 µM (active) with Hs-578T; 41.6 µM (inactive) with MDA-MB-435; 30.7 µM (inactive) with Malme-3M; 2.37 µM (inactive) in the experiment with SF-268; 17.5 µM (inactive) in the experiment on HOP-62. Besides, the figures for the GI50 with NCI-H460 and in the experiment on MCF7 were 5.81 µM (inactive) and 20.5 µM (inactive), respectively.

On to `CCOC(=O)c1nc2ccc(C(F)(F)F)cc2nc1NCc1ccc(F)cc1`, for which the GI50 is 31.6 µM (inactive) in the experiment with ACHN; 42.8 µM (inactive) in the experiment on A549; 17.1 µM (inactive) in the experiment on T47D; 25.4 µM (inactive) with MDA-N; 29.4 µM (inactive) with PC-3; 35.4 µM (inactive) in the experiment on HT-29. In addition, the GI50 is 48.6 µM (inactive) in the experiment on M14; 21.5 µM (inactive) in the experiment with Hs-578T; 31.9 µM (inactive) in the experiment with MDA-MB-435; 26.5 µM (inactive) in the experiment with IGROV-1; 29 µM (inactive) in the experiment with UO-31; 35.5 µM (inactive) with Malme-3M. Further, the GI50 in the experiment with CCRF-CEM was 24.9 µM (inactive); in the experiment with SF-268 it was 11.5 µM (inactive); with HOP-62, 47.3 µM (inactive); in the experiment on NCI-H460 it was 19.2 µM (inactive); in the experiment with MCF7 it was 30.9 µM (inactive); in the experiment with SK-MEL-28 it was 44 µM (inactive).

As for `CCOP(=O)(OCC)C(Nc1ccc(F)cc1)c1cccc([N+](=O)[O-])c1` (configuration not stated), the GI50 was > 100 µM (inactive) in the experiment with ACHN; 58.7 µM (inactive) with A549; > 100 µM (inactive) in the experiment on MDA-N; 67.5 µM (inactive) in the experiment with PC-3; 74.6 µM (inactive) with HT-29; 79.1 µM (inactive) in the experiment on M14. Moreover, the GI50 was 82.8 µM (inactive) with Hs-578T; > 100 µM (inactive) in the experiment with MDA-MB-435; > 100 µM (inactive) with A498; 78.9 µM (inactive) with IGROV-1; 40.6 µM (inactive) in the experiment with UO-31; 83.8 µM (inactive) with Malme-3M. Besides, the GI50 is 62.4 µM (inactive) in the experiment on CCRF-CEM; > 100 µM (inactive) in the experiment on SF-268; > 100 µM (inactive) with HOP-62; 65.9 µM (inactive) with NCI-H460; > 100 µM (inactive) in the experiment with MCF7; > 100 µM (inactive) in the experiment with SK-MEL-28.

In the case of `Cc1c(O)c(=O)ccn1CCc1ccc(O)cc1`, the GI50 in the experiment on ACHN was 13.9 µM (inactive); with A549, 32.9 µM (inactive); in the experiment with T47D it was 45.6 µM (inactive); with MDA-N, 11.9 µM (inactive); in the experiment with PC-3, 25.9 µM (inactive); with HT-29 it was 20.4 µM (inactive). Besides, the GI50 in the experiment on M14 is 17.3 µM (inactive); with Hs-578T, 24.3 µM (inactive); in the experiment on MDA-MB-435 it was 42.2 µM (inactive); with Malme-3M, 22.5 µM (inactive); in the experiment on CCRF-CEM, 10 µM (inactive); in the experiment on SF-268, 9.51 µM (inactive). For the same compound, the GI50 in the experiment with HOP-62 is 22.1 µM (inactive); in the experiment on NCI-H460, 17.1 µM (inactive); with MCF7, 23.9 µM (inactive); in the experiment with SK-MEL-28, 38.4 µM (inactive).

As for `NNC(=O)C1(NC(=O)c2ccccc2)C(c2ccccc2)C(c2ccccc2)=NN1c1ccccc1` (configuration not stated), the GI50 is 35.5 µM (inactive) in the experiment on ACHN; 43.5 µM (inactive) in the experiment on A549; 23.1 µM (inactive) with T47D; 24.2 µM (inactive) with MDA-N; 24.4 µM (inactive) with PC-3; 22.8 µM (inactive) in the experiment with M14. Moreover, the GI50 with MDA-MB-435 was 29.2 µM (inactive); with A498, > 100 µM (inactive); in the experiment with IGROV-1 it was 34.9 µM (inactive); in the experiment on UO-31, 27.8 µM (inactive); in the experiment with Malme-3M, > 100 µM (inactive); in the experiment on CCRF-CEM it was 8.99 µM (inactive). The GI50 is 66.7 µM (inactive) with SF-268; 34 µM (inactive) in the experiment on HOP-62; 43.8 µM (inactive) in the experiment on NCI-H460; 37.9 µM (inactive) in the experiment on MCF7; 90.4 µM (inactive) in the experiment on SK-MEL-28.

As to `O=C(c1ccccc1)N1CCN(C(=S)NC2CCCCC2)C1=S`, the GI50 in the experiment with ACHN is 24.3 µM (inactive); with A549, 13.4 µM (inactive); with T47D it was 15.8 µM (inactive); in the experiment on MDA-N, 19.4 µM (inactive); in the experiment on HT-29, 20.2 µM (inactive); in the experiment with M14, 16.8 µM (inactive). The GI50 was 19 µM (inactive) in the experiment with Hs-578T; 19.5 µM (inactive) with MDA-MB-435; 19 µM (inactive) with A498; 24.2 µM (inactive) in the experiment with IGROV-1; 16.1 µM (inactive) in the experiment on UO-31; 15.5 µM (inactive) in the experiment on Malme-3M. Moreover, the GI50 with CCRF-CEM was 12.2 µM (inactive); with SF-268, 16.8 µM (inactive); in the experiment on HOP-62, 18 µM (inactive); in the experiment on NCI-H460 it was 21.4 µM (inactive); in the experiment on MCF7, 22.8 µM (inactive); with SK-MEL-28, 14.9 µM (inactive).

Regarding `C[C@H]1CCCCC[C@@H]2CC(=O)CC2C(=O)CCC(=O)O1` (some centres not stated), the GI50 in the experiment with ACHN, in the experiment with A549, in the experiment on T47D, with MDA-N, with PC-3 and with HT-29 was > 100 µM (inactive) throughout. In addition, the GI50 with M14, with Hs-578T, with MDA-MB-435, with IGROV-1, in the experiment with Malme-3M and in the experiment with CCRF-CEM was > 100 µM (inactive) throughout. For the same compound, the GI50 in the experiment on SF-268, in the experiment on HOP-62, in the experiment on NCI-H460, with MCF7 and with SK-MEL-28 was > 100 µM (inactive) throughout.

As for `C/C(=C(/C)c1ccc(O)cc1)c1ccc(O)cc1` [DIMETHYLSTILBESTROL], the GI50 in the experiment on ACHN is 28.8 µM (inactive); with A549, 71.3 µM (inactive); with MDA-N, 31.8 µM (inactive); in the experiment on PC-3 it was 41.3 µM (inactive); with HT-29, 48.8 µM (inactive); with M14, 45.3 µM (inactive). Also, the GI50 was 24.5 µM (inactive) in the experiment on Hs-578T; 37.9 µM (inactive) in the experiment with MDA-MB-435; 54.6 µM (inactive) in the experiment on A498; > 100 µM (inactive) with IGROV-1; 70.8 µM (inactive) in the experiment with UO-31; 60.8 µM (inactive) in the experiment with Malme-3M. Further, the GI50 with CCRF-CEM is 42.3 µM (inactive); in the experiment on SF-268, > 100 µM (inactive); with HOP-62, 94 µM (inactive); in the experiment with NCI-H460 it was 49.8 µM (inactive); with MCF7, 39.5 µM (inactive).
